Assay results as given in US5244908A, “Imidazopyridine derivatives and their pharmaceutical use” (Takeda Chemical Industries, Ltd., priority 1990, dated 1993).
Structures can show the parent of a compound that is named as a salt.

The compounds below were run on rat heart (assay: Effect on incidence of arrhythmia caused by ischemia and following reperfusion in rat heart). Details: 10 mg/kg oral, 1 hour before ligation; until 10 minutes after reperfusion.
Type: in vivo
Experimental: Effect on incidence of arrhythmia caused by ischemia and following reperfusion in rat heart
Male Sprague Dawley rats (Japan Clea) of 9 to 10 weeks old were anesthetized with 50 mg/kg (i.p.) of sodium pentobarbital. The heart was exposed by a left thoractomy under artificial ventilation with room air and silk suture was placed under the main left coronary artery (LAD) to ligate for 5 minutes. Then, the ligature was released again for reperfusion. The incidence of ventricular tachycardia (VT), ventricular fibrillation (VF) and cardiac arrest (CA) caused until 10 minutes after reperfusion were noted. Medicines (compounds obtained in the above Examples) were orally administered (5 ml/kg) at 1 hour before tightening the ligature. The effect of medicines were estimated in comparison with the frequency of a group received a vehicle according to X^2 -test.
In the case of `CS(=O)(=O)NCCSc1cccc2ncc(CN3CCOCC3)n12` [Compound 14, 5-[2-(methylsulfonylamino)ethylthio]3-morpholinomethylimidazo[1,2-a]pyridine], the “CA (Frequency), cardiac arrest” value is reported as 0/3, the “VF (Frequency), ventricular fibrillation” value is reported as 0/3 and the “VT (Frequency), ventricular tachycardia” value is reported as 1/3.
With `O=S(=O)(NCCSc1cccc2nccn12)C(F)(F)F` [Compound 26, 5-[2-(Trifluoromethylsulfonylamino)ethylthio]imidazo[1,2-a]pyridine] the “CA (Frequency), cardiac arrest” value was 1/3, the “VF (Frequency), ventricular fibrillation” value was 1/3 and the “VT (Frequency), ventricular tachycardia” value was 2/3.

Same assay, conditions: 30 mg/kg oral, 1 hour before ligation; until 10 minutes after reperfusion
`CC(=O)Nc1ccc(S(=O)(=O)NCCSc2cccc3nccn23)cc1` [Compound 32, 5-[2-[4-(Acetamido)phenylsulfonylamino]ethylthio]imidazo[1,2-a]pyridine] was tested, and the “CA (Frequency), cardiac arrest” value was 1/3, the “VF (Frequency), ventricular fibrillation” value was 1/3 and the “VT (Frequency), ventricular tachycardia” value was 1/3.
In the case of `CNC(=O)OCCSc1cccc2nccn12` [Compound 118, 5-[2-(methylcarbamoyloxy)ethylthio]imidazo[1,2-a]pyridine], the “CA (Frequency), cardiac arrest” value is reported as 0/3, the “VF (Frequency), ventricular fibrillation” value is reported as 1/3 and the “VT (Frequency), ventricular tachycardia” value is reported as 1/3.

What follows are compounds tested against calmodulin (Bos taurus, UniProt P62157) (assay: Calmodulin inhibitory activity (calmodulin-activated cyclic nucleotide phosphodiesterase, [3H]cGMP)). Details: 10^-5 M.
Type: biochemical
Compound `CC(C)S(=O)(=O)NCCSc1cccc2nccn12` [Compound 5, 5-[2-(Isopropylsulfonylamino)ethylthio]imidazo[1,2-a]pyridine] has an inhibition at 10 µM of 50%.
In the case of `CCCCCCCCCCCCCCCCS(=O)(=O)NCCSc1cccc2nccn12` [Compound 9, 5-[2-(Hexadecylsulfonylamino)ethylthio]imidazo[1,2-a]pyridine], the inhibition at 10 µM is reported as 100%.
`CS(=O)(=O)NCCSc1cccc2ncc(CN3CCOCC3)n12` [Compound 14, 5-[2-(methylsulfonylamino)ethylthio]3-morpholinomethylimidazo[1,2-a]pyridine] gave an inhibition at 10 µM of 85%.
`CN(C)Cc1cnc2cccc(SCCNS(C)(=O)=O)n12` [Compound 16, 3-Dimethylaminomethyl-5-[2-(methylsulfonylamino)ethylthio]imidazo[1,2-a]pyridine.dihydrochloride] was tested, and the inhibition at 10 µM was 66%.
Compound `O=S(=O)(NCCSc1cccc2nccn12)C(F)(F)F` [Compound 26, 5-[2-(Trifluoromethylsulfonylamino)ethylthio]imidazo[1,2-a]pyridine] has an inhibition at 10 µM of 100%.
`CS(=O)(=O)NCCCSc1cccc2nccn12` [Compound 27, 5-[3-(Methylsulfonylamino)propylthio]imidazo[1,2-a]pyridine] gave an inhibition at 10 µM of 51%.
Work on `O=S(=O)(NCCSc1cccc2nccn12)c1ccccc1` [Compound 30, 5-[2-(Phenylsulfonylamino)ethylthio]imidazo[1,2-a]pyridine] yielded an inhibition at 10 µM of 64%.
With `CC(=O)Nc1ccc(S(=O)(=O)NCCSc2cccc3nccn23)cc1` [Compound 32, 5-[2-[4-(Acetamido)phenylsulfonylamino]ethylthio]imidazo[1,2-a]pyridine] the inhibition at 10 µM was 62%.
Compound `O=S(=O)(NCCSc1cccc2nccn12)c1ccc(Cl)cc1` [Compound 34, 5-[2-[4-(Chloro)phenylsulfonylamino]ethylthio]imidazo[1,2-a]pyridine] has an inhibition at 10 µM of 53%.
With `O=S(=O)(NCCSc1cccc2nccn12)c1cc(Cl)c(Cl)cc1Cl` [Compound 37, 5-[2-[2,4,5-(Trichloro)phenylsulfonylamino]ethylthio]imidazo[1,2-a]pyridine] the inhibition at 10 µM was 58%.
`O=S(=O)(NCCSc1cccc2nccn12)c1cccc2ccccc12` [Compound 42, 5-[2-[(1-Naphthyl)sulfonylamino]ethylthio]imidazo[1,2-a]pyridine] gave an inhibition at 10 µM of 100%.
With `O=S(=O)(NCCSc1cccc2nccn12)c1ccc2ccccc2c1` [Compound 44, 5-[2-[(2-Naphthyl)sulfonylamino]ethylthio]imidazo[1,2-a]pyridine] the inhibition at 10 µM was 65%.
`CN(C)c1cccc2c(S(=O)(=O)NCCSc3cccc4nccn34)cccc12` [Compound 48, 5-[2-[5-(Dimethylamino)-(1-naphthylsulfonylamino)]ethylthio]imidazo[1,2-a]pyridine] gave an inhibition at 10 µM of 50%.
In the case of `O=S(=O)(/C=C/c1ccccc1)N(CCSc1cccc2nccn12)S(=O)(=O)/C=C/c1ccccc1` [Compound 50, 5-[2-[N,N-di-(E)-Styrylsulfonylamino]ethylthio]imidazo[1,2-a]pyridine], the inhibition at 10 µM is reported as 65%.
`CC(=O)Nc1nc(C)c(S(=O)(=O)NCCSc2cccc3nccn23)s1` [Compound 51, 5-[2-[2-(Acetylamino)-4-(methyl)-(5-thiazolyl)sulfonylamino]ethylthio]imidazo[1,2-a]pyridine] gave an inhibition at 10 µM of 83%.
In the case of `Cc1cn2c(SCCNS(=O)(=O)c3cccc4ccccc34)cccc2n1` [Compound 56, 2-Methyl-5-[2-(1-naphthylsulfonylamino)ethylthio]imidazo[1,2-a]pyridine], the inhibition at 10 µM is reported as 62%.
Compound `CS(=O)(=O)NCCOc1cccc2nccn12` [Compound 62, 5-[2-(Methylsulfonylamino)ethyloxy]imidazo[1,2-a]pyridine] has an inhibition at 10 µM of 79%.
With `CS(=O)(=O)NCC(Oc1cccc2nccn12)c1ccccc1` (centres unmarked) [Compound 74, 5-[2-(Methylsulfonylamino)-1-(phenyl)ethyloxy]imidazo[1,2-a]pyridine] the inhibition at 10 µM was 50%.
`O=S(=O)(NCC(Oc1cccc2nccn12)c1ccccc1)C(F)(F)F` (centres unmarked) [Compound 75, 5-[[1-(Phenyl)-2-(trifluoromethylsulfonylamino)]ethyloxy]imidazo[1,2-a]pyridine] showed an inhibition at 10 µM of 55%.
For `O=S(=O)(N1CCC(Oc2cccc3nccn23)CC1)C(F)(F)F` [Compound 77, 5-[1-(Trifuloromethylsulfonyl)-4-piperidyloxy]imidazo[1,2-a]pyridine], the inhibition at 10 µM was 80%.
In the case of `O=S(=O)(NCCOc1cccc2nccn12)c1cccc2ccccc12` [Compound 78, 5-[2-(1-(Naphthyl)sulfonylamino)ethyloxy]imidazo[1,2-a]pyridine], the inhibition at 10 µM is reported as 56%.
`O=S(=O)(NCCCOc1cccc2nccn12)c1cccc2ccccc12` [Compound 79, 5-[3-(1-(Naphthyl)sulfonylamino)propyloxy]imidazo[1,2-a]pyridine] gave an inhibition at 10 µM of 50%.
Compound `CC(=O)NCCSc1cccc2nccn12` [Compound 83, 5-[2-(acetylamino)ethylthio]imidazo[1,2-a]pyridine] has an inhibition at 10 µM of 76%.
For `O=C(NCCSc1cccc2nccn12)C(F)(F)F` [Compound 84, 5-[2-(Trifluoroacetylamino)ethylthio]imidazo[1,2-a]pyridine], the inhibition at 10 µM was 69%.
For `O=C(NCCSc1cccc2nccn12)c1ccccc1` [Compound 87, 5-[2-(Benzoylamino)ethylthio]imidazo[1,2-a]pyridine], the inhibition at 10 µM was 51%.
For `O=C(NCCSc1cccc2nccn12)c1cccs1` [Compound 89, 5-[2-[(2-Thenoylamino)]ethylthio]imidazo[1,2-a]pyridine], the inhibition at 10 µM was 54%.
Compound `CCNC(=O)NCCSc1cccc2nccn12` [Compound 101, 5-[2-(Ethylcarbamoylamino)ethylthio]imidazo[1,2-a]pyridine] has an inhibition at 10 µM of 56%.
`CCCNC(=O)NCCSc1cccc2nccn12` [Compound 102, 5-[2-(Propylcarbamoylamino)ethylthio]imidazo[1,2-a]pyridine] was tested, and the inhibition at 10 µM was 52%.
With `CC(C)NC(=O)NCCSc1cccc2nccn12` [Compound 103, 5-[2-(Isopropylcarbamoylamino)ethylthio]imidazo[1,2-a]pyridine] the inhibition at 10 µM was 52%.
With `O=C(NCCSc1cccc2nccn12)NC1CCCCC1` [Compound 105, 5-[2-(Cyclohexylcarbamoylamino)ethylthio]imidazo[1,2-a]pyridine] the inhibition at 10 µM was 67%.
For `COc1ccc(NC(=S)NCCSc2cccc3nccn23)cc1` [Compound 109, 5-[2-[4-(Methoxy)phenylthiocarbamoylamino]ethylthio]imidazo[1,2-a]pyridine], the inhibition at 10 µM was 50%.
`Cc1cn2c(SCCNC(=S)Nc3ccccc3)cccc2n1` [Compound 115, 2-Methyl-5-[2-(phenylthiocarbamoylamino)ethylthio]imidazo[1,2-a]pyridine] showed an inhibition at 10 µM of 53%.
For `CNC(=O)OCCSc1cccc2nccn12` [Compound 118, 5-[2-(methylcarbamoyloxy)ethylthio]imidazo[1,2-a]pyridine], the inhibition at 10 µM was 74%.
With `COC(=O)NCCSc1cccc2nccn12` [Compound 128, 5-[2-(methoxycarbonylamino)ethylthio]imidazo[1,2-a]pyridine] the inhibition at 10 µM was 50%.
Work on `CCCOC(=O)NCCSc1cccc2nccn12` [Compound 130, 5-[2-(Propyloxycarbonylamino)ethylthio]imidazo[1,2-a]pyridine] yielded an inhibition at 10 µM of 50%.
Compound `CC(C)OC(=O)NCCSc1cccc2nccn12` [Compound 132, 5-[2-(Isopropyloxycarbonylamino)ethylthio]imidazo[1,2-a]pyridine] has an inhibition at 10 µM of 50%.
`C=CCOC(=O)NCCSc1cccc2nccn12` [Compound 135, 5-[2-(Allyloxycarbonylamino)ethylthio]imidazo[1,2-a]pyridine] was tested, and the inhibition at 10 µM was 60%.
Work on `O=C(NCCSc1cccc2nccn12)OCC(Cl)(Cl)Cl` [Compound 136, 5-[2-[2,2,2-(Trichloro)ethoxycarbonylamino]ethylthio]imidazo[1,2-a]pyridine] yielded an inhibition at 10 µM of 52%.
`CC(C)OC(=O)NCCSc1cccc2ncc(CN3CCOCC3)n12` [Compound 144, 5-[2-(Isopropyloxycarbonylamino)ethylthio]-3-(morpholinomethyl)imidazo[1,2-a]pyridine] was tested, and the inhibition at 10 µM was 60%.
With `COC(=O)NCCCSc1cccc2nccn12` [Compound 145, 5-[3-(Methoxycarbonylamino)propylthio]imidazo[1,2-a]pyridine] the inhibition at 10 µM was 63%.
`CC(=O)N(CCCSc1cccc2nccn12)CCNc1ccccc1` [Compound 158, 5-[3-[[2-(Anilino)ethyl]-N-(acetyl)amino]propylthio]imidazo[1,2-a]pyridine] was tested, and the inhibition at 10 µM was 81%.
With `O=S(=O)(N1CCC(Sc2cccc3nccn23)CC1)C(F)(F)F` [Compound 165, 5-[1-(trifluoromethanesulfonyl)4-piperidylthio]imidazo[1,2-a]pyridine] the inhibition at 10 µM was 65%.
`O=S(=O)(NCCCCSc1cccc2nccn12)c1cccc2ccccc12` [Compound 168, 5-[4-(1-naphthalenesulfonylamino)butylthio]imidazo[1,2-a]pyridine] was tested, and the inhibition at 10 µM was 56%.
Work on `CC(C)OC(=O)NCCCCSc1cccc2nccn12` [Compound 169, 5-[4-(isopropyloxycarbonylamino)butylthio]imidazo[1,2-a]pyridine] yielded an inhibition at 10 µM of 58%.
